From patent US10543249B2, “Pharmaceutical composition for a sustained release of lanreotide” (IPSEN PHARMA S.A.S., priority 2013, dated 2020)

Assay: Solubility of lanreotide acetate
Type: physicochemical
Description: The term “co-solvent” as used in the present application refers to a solvent or a mixture of solvents which allows the incorporation of the active ingredient in the composition to obtain the required dose in a suitable volume and matching the injectability criteria.
A composition according to the present invention comprises a co-solvent which allows obtaining the required injectability criteria of the pharmaceutical compositions. The co-solvent used in the composition according to the present invention is hydrosoluble. Moreover, the solubility, in the hydrosoluble co-solvent, of lanreotide or its salts used according to the present invention is equal or higher than 8% (w/v) at room temperature. For comparison, the solubility of lanreotide acetate is less than 4% in water, aqueous acetic acid (at the concentration of 0.1 or 1 mol/mL), aqueous NaCl (0.9%), or polysorbate (0.01%).

Measured: solubility of lanreotide acetate

CC(C)[C@@H]1NC(=O)[C@H](CCCCN)NC(=O)[C@@H](Cc2c[nH]c3ccccc23)NC(=O)[C@H](Cc2ccc(O)cc2)NC(=O)[C@@H](NC(=O)[C@H](N)Cc2ccc3ccccc3c2)CSSC[C@@H](C(=O)N[C@H](C(N)=O)[C@@H](C)O)NC1=O [lanreotide acetate]
less than 4%: in aqueous NaCl (0.9%) | in aqueous acetic acid (at the concentration of 0.1 or 1 mol/mL) | in polysorbate (0.01%) | in water
